The term IC50 denotes the midpoint of a concentration-inhibition curve.

Consider 13 compounds from patent publication US20240294531A1, “COVALENT HETEROCYCLES AND USES THEREOF” (Kumquat Biosciences Inc., priority 2022, published 2024).

Some results are limits rather than exact numbers.

A short description of assay [1]: Intrinsic reactivity assay. As to conditions: pH 7.4, 37° C., suitably protected Cys-OMe. Type of assay: physicochemical. The source says:
Understanding of the intrinsic reactivity of electrophilic warheads with nucleophilic molecules is an important parameter influencing the stability of a compound in biological matrices. Lower intrinsic reactivity also mitigates the risk of covalent off-target reactivity. A common target residue for covalent drugs is cysteine, an amino acid containing a nucleophilic thiol side chain. The assay described here measures the rate of a compound forming a covalent bond with Boc-protected cysteine methyl ester or cysteine methyl ester that can be used as a surrogate for cysteines found on proteins.
Test compounds are prepared as 10 mM stock solutions in DMSO (Fisher cat #BP231-100). Compounds with molecular weight differing more than 3 Dalton are pooled and diluted to 5 μM in 100 mM potassium phosphate buffer, pH 7.4, containing 50 mM Boc-protected cysteine methyl ester (Combi-Blocks cat #QH-3424). Compounds incubated without Boc-protected cysteine methyl ester serve as controls. The reactions are incubated at 37° C., and reaction aliquots at different time intervals are sampled from the reaction and quenched with formic acid for subsequent LC-MS/MS analysis.
The LC-MS/MS analysis is done using a LC-40D×3 pump and SIL-40C×3 autosampler (Shimadzu) coupled to a QTRAP 6500+ (Sciex). Compounds are separated on a XBridge Premier BEH column (Waters). The sample run time is about 4 minutes per injection. The normalized peak area for each compound is extracted from the mass spectrometry raw files, and the data for each compound are plotted against time in Prism version 9.4 (GraphPad). Nonlinear regression using one-phase decay is used to estimate the rate of covalent bond formation with Boc-protected cysteine methyl ester or cysteine methyl ester and parent compound half-life (t½).

The target in assay [2] is BTK C481S protein (Homo sapiens (Human), UniProt Q06187, C481S). The experiment in a line: BTK C481S HTRF displacement assay. Type of assay: binding. As to conditions: 1-hour incubation. In short, it runs like this:
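Tracer displacement read by HTRF after 1 hour at room temperature: GST-BTK C481S 2-659, 50 nM tracer 239 (Kd 54 nM), anti-GST antibody, compound in six four-fold doses from 5 μM. Percent inhibition versus DMSO fitted (bottom 0, top 100) for IC50, converted to KI via Cheng-Prusoff.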

Assay [3] concerns the target T1, BTK wildtype protein (Homo sapiens (Human), UniProt Q06187). In words: BTK wildtype HTRF displacement assay. Type of assay: binding. The conditions noted are these: 1-hour incubation; read-out: BTK (wt) IC50. In short, it runs like this:
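Tracer-displacement HTRF format: compound and tracer 239 compete at the BTK active site, detected via anti-GST-Tb on GST-tagged full-length enzyme. One-hour room-temperature incubation; compounds dosed at six four-fold steps down from 5 μM. Percent inhibition versus DMSO gives IC50 by constrained four-parameter logistic fit.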
Target sequence in this assay (Q06187 2-659): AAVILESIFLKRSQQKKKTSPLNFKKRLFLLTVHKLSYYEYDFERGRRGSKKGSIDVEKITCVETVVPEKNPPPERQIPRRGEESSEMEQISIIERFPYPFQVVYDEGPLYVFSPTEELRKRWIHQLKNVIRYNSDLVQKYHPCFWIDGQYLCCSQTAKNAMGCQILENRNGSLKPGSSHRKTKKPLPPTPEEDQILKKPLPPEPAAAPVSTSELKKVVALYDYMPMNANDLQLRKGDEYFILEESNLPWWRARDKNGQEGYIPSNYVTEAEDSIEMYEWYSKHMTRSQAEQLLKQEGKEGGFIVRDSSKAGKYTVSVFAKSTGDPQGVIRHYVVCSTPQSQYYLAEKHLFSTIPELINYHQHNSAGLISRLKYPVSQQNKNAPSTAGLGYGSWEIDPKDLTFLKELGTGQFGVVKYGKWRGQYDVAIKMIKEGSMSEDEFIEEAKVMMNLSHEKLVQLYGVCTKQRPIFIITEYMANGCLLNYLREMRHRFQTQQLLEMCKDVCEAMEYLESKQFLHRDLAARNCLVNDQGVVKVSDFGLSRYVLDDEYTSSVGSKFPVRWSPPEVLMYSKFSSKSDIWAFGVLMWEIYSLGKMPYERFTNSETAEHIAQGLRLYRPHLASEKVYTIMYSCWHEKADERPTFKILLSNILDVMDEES

For assay [4], the target named is MGLL (Homo sapiens (Human), UniProt Q99685, K36A/L169S/L176S). In words: MGLL compound modification assay (intact protein LC-MS). Type of assay: binding. The conditions noted are these: at 4 hours; compound concentration of 3 μM. As to the method:
Test compounds were prepared as 10 mM stock solutions in DMSO (Fisher cat #BP231-100). Human recombinant MGLL protein 1-303 containing K36A, L169S, L176S amino acid substitutions were produced at in house. On the day of the assay, MGLL protein was diluted to 2 μM in assay buffer (20 mM Hepes, pH 7.5, 150 mM NaCl, 1 mM MgCl2, 1 mM DTT). For testing MGLL modification, compounds were diluted to 50× final test concentration in DMSO in 96-well storage plates. […] of the diluted 50× compounds were added to appropriate wells in the PCR plate (Fisher cat #AB-0800). 49 μL of the stock protein solution was added to each well of the 96-well PCR plate to form a mixture. The plate was sealed well with aluminum plate seal and stored in a drawer at room temperature. […]
The extent of covalent modification of MGLL proteins was determined by liquid chromatography electrospray mass spectrometry analysis of the intact proteins using a Thermo Q-Exactive Plus mass spectrometer. […] The recorded protein mass spectrum was deconvoluted from the raw data file using Protein Deconvolution v4.0 (Thermo). […]
Certain compounds disclosed herein are expected to covalently modify MGLL protein when assessed using the assay described above by at least 1%, such as by at least 5%, 10%, 20%, 30%, 40%, or at least 50%.

The target in assay [5] is T1, BTK wildtype protein. In words: Kinact/KI determination for BTK protein inhibitors (Kobs). Type of assay: binding. How it is done: Test compounds were prepared as 10 mM stock solutions in DMSO (Fisher cat #BP231-100). Human recombinant BTK wildtype protein 393-659 or BTK C481S protein 393-659 was produced in house or purchased from Saromics Biostructures AB (Lund, Sweden). BTK protein was diluted to 1 μM in buffer (20 mM Hepes, pH 7.5, 150 mM NaCl, 1 mM MgCl2, 1 mM DTT). For testing BTK modification, compounds were diluted to 50× final test concentration in DMSO in 96-well storage plates. 1 μL of the diluted 50× compounds were added to appropriate wells in the PCR plate (Fisher cat #AB-0800). Increasing concentrations of compounds were added to separate wells, resulting in final assay compound concentrations of 3 μM, 10 μM, 30 μM and 100 μM. 49 μL of the stock protein solution was added to each well of the 96-well PCR plate. Reactions were mixed carefully. The plate was sealed well with aluminum plate seal and stored in a drawer at room temperature. After different incubation times, the reactions were quenched by adding 5 μL of 2% formic acid (Fisher cat #A117-50) in MilliQ H2O to each well followed by mixing with a pipette. The plate was then resealed with aluminum seal and stored until mass spectrometry analysis.
The extent of covalent modification of BTK proteins was determined by liquid chromatography electrospray mass spectrometry analysis of the intact proteins using a Thermo Q-Exactive Plus mass spectrometer. 20 μL of sample was injected onto a bioZen 3.6 μm Intact C4 column (Phenomenex cat #00B-4767-AN) placed in a column oven set to 40° C. and separated using a LC gradient from 20% to 60% solvent B. Solvent A was 0.1% formic acid and solvent B was 0.1% formic acid in acetonitrile. HESI source settings were set to 40, 5 and 1 for the sheath, auxiliary and sweep gas flow, respectively. The spray voltage was 4 kV, and the capillary temperature was 320° C. S-lens RF level was 50 and auxiliary gas heater temperature was set to 200° C. The mass spectrometry was acquired using a scan range from 650 to 1750 m/z using positive polarity at a mass resolution of 70,000, AGC target of 1e6 ions and maximum injection time of 250 ms. The recorded protein mass spectrum was deconvoluted from the raw data file using Protein Deconvolution v4.0 (Thermo). The protein mass, adduct masses and their corresponding peak intensities were exported to Excel (Microsoft). The peak intensities for the unmodified and modified protein were used to calculate the percent covalent modification of the BTK protein based on the following equation: % BTK protein modification=((BTK−compound)/(BTK)+(BTK−Compound))*100.
The Kinact/KI is a rate constant describing the efficiency of covalent bond formation resulting from the potency (KI) of the first reversible binding event and the maximum potential rate (Kinact) of inactivation. The percent […] protein modification was plotted as a function of time using Prism version 9.4.1 (GraphPad), and the observed rate of modification (Kobs), a first-order rate constant with units of inverse time, was estimated using nonlinear regression at each compound concentration. […] If Kobs is increasing with compound concentration, KI is higher than 3 μM. Kinact/KI can be estimated by plotting Kobs values against each compound concentration used in separate reactions. The Kobs values are fitted to determine Kinact and KI using the following equation, Kobs=(Kinact×[compound conc])/(KI+[compound conc]).
Target sequence in this assay (Q06187 393-659): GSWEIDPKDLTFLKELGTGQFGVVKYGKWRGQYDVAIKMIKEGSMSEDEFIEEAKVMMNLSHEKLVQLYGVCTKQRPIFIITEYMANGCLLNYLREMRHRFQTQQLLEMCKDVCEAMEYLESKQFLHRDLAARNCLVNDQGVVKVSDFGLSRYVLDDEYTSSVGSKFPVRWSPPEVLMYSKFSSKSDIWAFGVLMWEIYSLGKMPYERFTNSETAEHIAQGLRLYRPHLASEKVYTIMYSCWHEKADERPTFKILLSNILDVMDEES

BTK C481S protein, sequence (Q06187 2-659 C481S): as the sequence (Q06187 2-659) above, with C480S counted along it
MGLL, sequence (Q99685 whole entry K36A/L169S/L176S): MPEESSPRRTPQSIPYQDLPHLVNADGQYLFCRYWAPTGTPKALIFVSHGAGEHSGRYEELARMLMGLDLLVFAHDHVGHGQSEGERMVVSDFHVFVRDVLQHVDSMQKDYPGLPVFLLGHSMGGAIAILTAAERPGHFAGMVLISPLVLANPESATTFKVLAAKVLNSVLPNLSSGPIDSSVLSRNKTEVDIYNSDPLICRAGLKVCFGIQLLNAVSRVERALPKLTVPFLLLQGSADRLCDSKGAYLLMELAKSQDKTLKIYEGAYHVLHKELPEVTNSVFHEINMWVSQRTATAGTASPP

Consider `CCN(C(=O)n1cncn1)C1CC1`, for which the “K (min^−1), intrinsic rate constant” value in assay [1] was less than 0.0005 min⁻¹.

Take `CCN(CC)C(=O)n1cncn1`: the “K (min^−1), intrinsic rate constant” value in assay [1] is less than 0.0005 min⁻¹.

On to `CC1CCCCN1C(=O)n1cncn1` (stereo not drawn), for which, in assay [1], the “K (min^−1), intrinsic rate constant” value is less than 0.0005 min⁻¹.

Consider `C=CC(=O)N(CC)C1CC1`, for which, in assay [1], the “K (min^−1), intrinsic rate constant” value came to 0.0159 min⁻¹.

Consider `C=CC(=O)N(CC)CC`, for which the “K (min^−1), intrinsic rate constant” value in assay [1] amounted to 0.0012 min⁻¹.

`C=CC(=O)N1CCCCC1C` (stereo not drawn): in assay [1], the “K (min^−1), intrinsic rate constant” value was found to be 0.0029 min⁻¹.

As to `CN(C(=O)n1cncn1)C1CCC(n2nc(-c3ccc(Oc4ccccc4)cc3)c3c(N)ncnc32)CC1` (stereo not drawn) [Compound 133, N-(4-(4-amino-3-(4-phenoxyphenyl)-1H-pyrazolo[3,4-d]pyrimidin-1-yl)cyclohexyl)-N-methyl-1H-1,2,4-triazole-1-carboxamide], the half-maximal inhibitory concentration (IC50) in assay [2] and in assay [3] was no more than 1 µM in each case. In addition, the “% MGLL protein modification” value in assay [4] is “over 50%”.

As to `COc1ccc(F)cc1C(=O)NCc1ccc(-c2nn(C3CCCCN(C(=O)n4cncn4)C3)c(N)c2C(N)=O)cc1` (stereo not drawn) [Compound 256, 1-(1-(1H-1,2,4-triazole-1-carbonyl)azepan-3-yl)-5-amino-3-(4-((5-fluoro-2-methoxybenzamido)methyl)phenyl)-1H-pyrazole-4-carboxamide], the IC50 in assay [2] and in assay [3] was no more than 1 µM in each case. Moreover, the “BTK (wt) Kobs” value in assay [5] was 248, 249, 250, 253, 254, 256, 259, 260, 261, 264, 265, M^−1 · s^−1.

`COc1ccc(F)cc1C(=O)NCc1ccc(-c2nn(C[C@H](C(C)C)N(C)C(=O)n3cncn3)c3ncnc(N)c23)cc1` [Compound 259, (S)-N-(1-(4-amino-3-(4-((5-fluoro-2-methoxybenzamido)methyl)phenyl)-1H-pyrazolo[3,4-d]pyrimidin-1-yl)-3-methylbutan-2-yl)-N-methyl-1H-1,2,4-triazole-1-carboxamide]: the half-maximal inhibitory concentration (IC50) in assay [2] and in assay [3] was greater than 1 µM each time. Moreover, the “BTK (wt) Kobs” value in assay [5] is 248, 249, 250, 253, 254, 256, 259, 260, 261, 264, 265, M^−1 · s^−1.

For the compound `COc1ccc(F)cc1C(=O)NCc1ccc(-c2nn(C3CCCC(CN(C)C(=O)n4cncn4)C3)c3ncnc(N)c23)cc1` (stereo not drawn) [Compound 260, N-((3-(4-amino-3-(4-((5-fluoro-2-methoxybenzamido)methyl)phenyl)-1H-pyrazolo[3,4-d]pyrimidin-1-yl)cyclohexyl)methyl)-N-methyl-1H-1,2,4-triazole-1-carboxamide], the IC50 in assay [2] and in assay [3] was no more than 1 µM in each case. Also, the “BTK (wt) Kobs” value in assay [5] is given as 248, 249, 250, 253, 254, 256, 259, 260, 261, 264, 265, M^−1 · s^−1.

On to `COCC(CN(C)C(=O)n1cncn1)n1nc(-c2ccc(CNC(=O)c3cc(F)ccc3OC)cc2)c2c(N)ncnc21` (stereo not drawn) [Compound 261, N-(2-(4-amino-3-(4-((5-fluoro-2-methoxybenzamido)methyl)phenyl)-1H-pyrazolo[3,4-d]pyrimidin-1-yl)-3-methoxypropyl)-N-methyl-1H-1,2,4-triazole-1-carboxamide], for which the concentration for half-maximal inhibition (IC50) in assay [2] and in assay [3] was greater than 1 µM throughout. In addition, the “BTK (wt) Kobs” value in assay [5] is recorded as 248, 249, 250, 253, 254, 256, 259, 260, 261, 264, 265, M^−1 · s^−1.

Regarding `COc1ccc(F)cc1C(=O)NCc1ccc(-c2nn(C[C@@H]3C[C@@H](C)CCN3C(=O)n3cnnc3)c(N)c2C(N)=O)cc1` [Compound 264, 5-amino-3-(4-((5-fluoro-2-methoxybenzamido)methyl)phenyl)-1-(((2S,4S)-4-methyl-1-(4H-1,2,4-triazole-4-carbonyl)piperidin-2-yl)methyl)-1H-pyrazole-4-carboxamide], the IC50 in assay [2] and in assay [3] was no more than 1 µM throughout. In addition, the “BTK (wt) Kobs” value in assay [5] is on record as 248, 249, 250, 253, 254, 256, 259, 260, 261, 264, 265, M^−1 · s^−1.

For the compound `CN(CCC1CNc2c(C(N)=O)c(-c3ccc(Oc4ccccc4)cc3)nn2C1)C(=O)n1cncn1` (stereo not drawn) [Compound 265, 6-(2-(N-methyl-1H-1,2,4-triazole-1-carboxamido)ethyl)-2-(4-phenoxy-phenyl)-4,5,6,7-tetrahydro-pyrazolo[1,5-a]pyrimidine-3-carboxamide], the IC50 in assay [2] is no more than 1 µM; in assay [3] it was greater than 1 µM. The “BTK (wt) Kobs” value in assay [5] is given as 248, 249, 250, 253, 254, 256, 259, 260, 261, 264, 265, M^−1 · s^−1.
